What was measured:
Type in all cases: cell-based
[1] = tested on: AKT protein phosphorylated on serine 473 (pAKT-S473) in PC3 human prostate carcinoma cells; assay: pAKT expression in PC3 human prostate carcinoma cells measured by western blotting (test A); conditions: PC-3, 1 to 2 h incubation, absolute IC50
Protocol: (§1) The inhibitory activity of the molecules on AKT phosphorylation is measured either by western blotting using the technique described below, or by the MSD Multi-spot Biomarker detection technique from Meso Scale Discovery also described below.
Study of pAKT Expression in PC3 Human Prostate Carcinoma Cells Measured by Western Blotting (test A):
This test is based on measuring the expression of the AKT protein phosphorylated on serine 473. The phosphorylation of AKT (pAKT) is measured by western blotting in the PC3 human prostate carcinoma line (ATCC CRL-1435), using an antibody that specifically recognises pAKT-S473.
(§2) On day 1, the PC3 cells are seeded into 6-well plates (TPP, #92006) at the concentration of 0.8×10^6 cells/well in 1800 μl of DMEM medium (DMEM Gibco #11960-044) containing 10% of foetal calf serum (SVF Gibco, #10500-056) and 1% glutamine (L-Glu Gibco #25030-024), and incubated at 37° C., 5% CO2, overnight.
(§3) On day 2, the cells are incubated in the presence or absence of the test products for 1 to 2 hours at 37° C. in the presence of 5% CO2. The molecules, diluted in dimethyl sulphoxide (DMSO Sigma #D2650), are added from a 10-times concentrated stock solution, the final percentage of DMSO being 0.1%. The molecules are tested either at a single concentration of less than or equal to 10 μM, or at increasing concentrations in a range that can extend from less than 1 nM to 10 μM.
After this incubation, the cells are lysed for the preparation of the proteins. After the culture medium has been drawn off, the cells are rinsed with 1 ml of PBS (DPBS Gibco, #14190-094), recovered by scraping in 200 μl of complete HNTG buffer and transferred into a 96-well plate (Greiner #651201), and lysed for 1 h on ice. The HNTG buffer is composed of the following mixture: 50 mM hepes, 150 mM NaCl, 1% triton, 10% glycerol, with extemporaneous addition of one Mini Protease Inhibitor Cocktail tablet (Roche 1836153) and of one Phosphatase Inhibitor Cocktail tablet (Roche104906837001) per 10 ml of buffer.
The lysate is centrifuged for 10 min at 6000 rpm. 155 μl of supernatant are recovered. 150 μl are incubated for denaturation for 5 min at 95° C. in the presence of 4× NuPAGE LDS Sample Buffer diluted 4-fold (InVitrogen ref NP0007) and of 10× NuPAGE Sample Reducing Agent diluted 10-fold (InVitrogen ref NP0009). These samples are then frozen at −20° C. 5 μl are assayed by the microBCA technique according to the technical bulletin of the MicroBCA Protein Assay Kit (Pierce #23235).
For protein separation, 20 μg of proteins are loaded on to a NU-PAGE 4-12% Bis Tris Gel 12 well (InVitrogen ref NP0322BOX) and the migration is carried out for 1 h 30 in 20× NU-PAGE MOPS SDS Running Buffer diluted 20-fold (InVitrogen ref NP0001), at 150 volts.
The gel is then transferred on to an Invitrolon PVDF membrane (Invitrogen #LC2007) permeabilised before and after a few seconds in ethanol (Ethanol Fischer Scientific #E/0600DF/15).
The transfer is carried out in a Biorad tank at 30 volts overnight or at 60 volts for 3 hours, in the presence of 20× NUPAGE Transfer Buffer diluted 20-fold (InVitrogen ref NP0006).
The membrane is then saturated in saturating solution composed of TBS (10× Tris Buffered Saline, Sigma #T5912, diluted 10-fold), 0.1% Tween 20 (Sigma #P5927) and 3% BSA (Bovine Albumin Serum Fraction V, Sigma #A4503) for 6 h after overnight transfer or else for 1 h after transfer for a period of 3 h.
The primary antibodies are diluted to 1/1000 for the anti-phospho AKT-Ser473 antibody (1931-12, rabbit monoclonal, cat#4058 from Cell Signaling Technology Abcam), in saturating solution composed of PBS, 0.1% Tween 20 and 3% BSA, and then shaken overnight at 4° C.
Two rinses for 5 min in washing solution composed of TBS and 0.1% Tween 20 are carried out before hybridisation of the secondary antibodies. […]

[2] = tested on: translocation of the LC3 protein in Hela GFP-LC3 cells; assay: Translocation of the LC3 protein in Hela human cells measured by image analysis cytometry (test C, autophagy); conditions: Homo sapiens, HeLa, 2 h, EBSS + 10 μM hydroxychloroquine, cells with LC3 granulations, absolute IC50
Protocol: Inhibitory activity of the molecules on autophagy is measured by means of the translocation of the LC3 protein from the cytoplasm to the autophagosomes. For this, Hela cells were transfected with a vector encoding the chimeric protein GFP-LC3. A Hela clone stably expressing the GFP-LC3 protein was selected.
Study of the Translocation of the LC3 Protein in Hela Human Cells, Measured by Image Analysis Cytometry (Test C):
as §2, with “Hela GFP-LC3” for “PC3”, “96-well” for “6-well”, “coated with poly-D-lysine (Greiner, #655946)” for “(TPP, #92006)”, “15000” for “0.8×10^6”, “200” for “1800”, “(FCS” for “(SVF”
On day 2, the cells are washed twice with EBSS (Sigma #E3024). The cells are then incubated in EBSS, 10 μM hydroxychloroquine and test products, for 2 hours at 37° C. in the presence of 5% CO2. The molecules are diluted in dimethyl sulphoxide (DMSO Sigma #D2650), the final DMSO percentage being 0.1%. The molecules are tested at increasing concentrations in a range that can extend from 10 nM to 1 μM.
After this incubation, the cells are fixed with 4% paraformaldehyde (Sigma #HT501128 4L) for 10 min. The cells are then washed twice with PBS and the nuclei then stained with 2 μg/ml of Hoechst 33342 (Invitrogen #H3570). The 96-well plates are then read with the iCyte image analysis cytometer (Compucyte).
The activity of the product is translated to IC50, obtained from a dose-response curve of various concentrations tested and representing the dose giving 50% specific inhibition (absolute IC50). 2 independent experiments make it possible to calculate the mean of the IC50 values.

[3] = tested on: AKT protein phosphorylated on serine 473 (P-AKT-S473) in PC3 human prostate carcinoma cells; assay: pAKT expression in PC3 human prostate carcinoma cells measured by MSD Multi-spot Biomarker detection (test B); conditions: Homo sapiens, PC-3, P-AKT-S473, PC3 cells, MSD sandwich immunoassay, 1 to 2 h incubation, absolute IC50
Protocol: as §1
Study of pAKT Expression in PC3 Human Prostate Carcinoma Cells Measured by the MSD Multi-Spot Biomarker Detection Technique from Meso Scale Discovery (Test B):
This test is based on measuring the expression of the AKT protein phosphorylated on serine 473 (P-AKT-S473), in the PC3 human prostate carcinoma line, by means of the technique based on a sandwich immunoassay using the MSD Multi-spot Biomarker Detection kit from Meso Scale Discovery: phospho-Akt (Ser473) whole cell lysate kit (#K151CAD) or phospho-Akt (Ser473)/Total Akt whole cell lysate kit (#K151OOD). The primary antibody specific for P-AKT-S473 (Kit #K151CAD) is coated onto an electrode in each well of the 96-well plates of the MSD kit: after the addition of a protein lysate to each well, the signal is visualised by adding a secondary detection antibody labelled with an electrochemoluminescent compound. The procedure followed is that described in the kit.
as §2, with “96-well” for “6-well”, “#92096)” for “#92006)”, “35 000” for “0.8×10^6”, “200” for “1800”, “(FCS” for “(SVF”
as §3, with “h” for “hours”, “5% of” for “5%”, “20-times” for “10-times”
After this incubation, the cells are lysed for the preparation of the proteins. For this, after the culture medium has been drawn off, 50 μl of complete Tris Lysis Buffer of the MSD kit containing the protease and phosphatase inhibitor solutions are added to the wells and the cells are lysed for 1 h at 4° C. with shaking. At this stage, the plates containing the lysates can be stored at −20° C. or at −80° C.
The wells of the 96-well plates of the MSD kit are saturated for 1 h at ambient temperature with the blocking solution of the MSD kit. Four washes are carried out with 150 μl of Tris Wash Buffer of the MSD kit. The lysates previously prepared are transferred into the 96-well multi-spot plates of the MSD kit and incubated for 1 h at ambient temperature, with shaking. Four washes are carried out with 150 μl of Tris Wash Buffer of the MSD kit. 25 μl of the MSD sulfo-tag detection antibody solution are added to the wells and incubated for 1 h at ambient temperature, with shaking. Four washes are carried out with 150 μl of Tris Wash Buffer of the MSD kit. 150 μl of Read Buffer of the MSD kit are added to the wells and the plates are read immediately on the S12400 instrument from Meso Scale Discovery.
The instrument measures a signal for each well. Wells without cells and containing the lysis buffer serve to determine the background noise that will be subtracted from all the measurements (min). The wells containing cells in the absence of product and in the presence of 0.1% DMSO are considered to be the 100% signal (max). The percentage inhibition is calculated for each concentration of test product according to the following formula: (1-((test−min)/(max−min)))×100.
The activity of the product is translated to IC50, obtained from a dose-response curve of the various concentrations tested and representing the dose giving 50% specific inhibition (absolute IC50). 2 independent experiments make it possible to calculate the mean of the IC50 values.

[4] = tested on: P. falciparum (highly chloroquine-resistant strain Fcm29-Cameroon); assay: Antimalarial activity test (radioactive micromethod of Desjardins, tritiated hypoxanthine incorporation); conditions: Plasmodium falciparum, Erythrocyte, infected human erythrocytes, 48 h
Protocol: Antimalarial Activity Test
The antimalarial activity tests are carried out according to the radioactive micromethod of Desjardins (R. E. Desjardins, C. J. Canfield, J. D. Haynes, J. D. Chulay, Antimicrob. Agents Chemother., 1979, 16, 710-718). The assays are carried out in 96-well microplates (Test Plates Ref. 92696, Techno Plastic Products Ag, Zollstrasse 155, CH-8219 Trasadingen). The P. falciparum strains are cultured in solutions of RPMI 1640 supplemented with 5% of human serum with a haematocrit at 2% and a blood parasite concentration at 1.5%. For each assay, the parasites are incubated with selected concentrations of drugs for 48 h at 37° C. in a humid atmosphere and at 5% CO2. Artemisinin, artesunate and also chloroquine diphosphate are used as reference molecules. The first dilution of the drug is prepared at 1 mg/ml in dimethyl sulphoxide. The range of dilutions of the successive daughter solutions is also prepared in dimethyl sulphoxide. Each daughter dilution is subsequently diluted to 1/50 in RPMI 1640 supplemented with 5% of human serum, all the dilutions being carried out at 37° C. These dilutions are then added to the parasites in culture in the microplates. After addition of the drug, the parasites are in culture in RPMI 1640 containing 5% of human serum and 1% of dimethyl sulphoxide. The parasite growth is measured by incorporation of tritiated hypoxanthine (added 24 h after the beginning of the exposure to the drug) compared with the incorporation in the absence of drug.
The activity of the product is translated to % inhibition of the growth of P. falciparum (highly chloroquine-resistant strain Fcm29-Cameroon) at 1 μM and 0.1 μM in an in vitro test using infected human erythrocytes.

With `CC(c1ccccc1)N1c2nc(N3CCOCC3)cc(=O)n2C[C@@]1(C)C(F)(F)F` (mixture of isomers) [Example 16, (2S)-2-Methyl-7-(morpholin-4-yl)-1-((R) and (5)-1-phenylethyl)-2-(trifluoromethyl)-2,3-dihydroimidazo[1,2-a]pyrimidin-5(1H)-one] the IC50 [1] was 79 nM.
`COc1ccc(CCN2c3nc(N4CCOCC4)cc(=O)n3CC2(C)C(F)(F)F)cc1` (racemic) [Example 2, (R,S)-1-[2-(4-methoxyphenyl)ethyl]-2-methyl-7-(morpholin-4-yl)-2-(trifluoromethyl)-2,3-dihydroimidazo[1,2-a]pyrimidin-5(1H)-one] was tested, and the IC50 [1] was 324 nM and the IC50 [2] was 145 nM.
Work on `CCC(c1ccccc1)N1c2nc(N3CCOCC3)cc(=O)n2C[C@@]1(C)C(F)(F)F` (single isomer, unassigned) [Example 14, (S)-2-Methyl-7-morpholin-4-yl-1-((S) or (R)-1-phenylpropyl)-2-trifluoromethyl-2,3-dihydro-1H-imidazo[1,2-a]pyrimidin-5-one] yielded an IC50 [1] of 174 nM.
`C[C@@]1(C(F)(F)F)Cn2c(nc(N3CCOCC3)cc2=O)N1CCc1ccc(Cl)cc1` [Example 28, (2S)-1-[2-(4-Chlorophenyl)ethyl]-2-methyl-7-(morpholin-4-yl)-2-(trifluoromethyl)-2,3-dihydroimidazo[1,2-a]pyrimidin-5(1H)-one] showed an IC50 [3] of 10 nM, an IC50 [2] of 198 nM and an inhibition at 0.1 µM ([4]; 0.1 μM) of 14%. It also gave an inhibition at 1 µM [4] of 53%.
Molecule `C[C@@]1(C(F)(F)F)Cn2c(nc(N3CCOCC3)cc2=O)N1CCc1cccc(Cl)c1` [Example 29, (2S)-1-[2-(3-Chlorophenyl)ethyl]-2-methyl-7-(morpholin-4-yl)-2-(trifluoromethyl)-2,3-dihydroimidazo[1,2-a]pyrimidin-5(1H)-one] has an IC50 [3] of 6 nM, an IC50 [2] of 261 nM and an inhibition at 1 µM [4] of 52%.

— patent publication US8828997B2, “2,3-dihydro-1H-imidazo(1,2-a)pyrimidin-5-one derivatives, preparation thereof, and pharmaceutical use thereof” (Sanofi, priority 2009, dated 2014)
